Our source for the IC50 values is patent publication US20110118283A1, “Substituted Pyrrolidine-2-Carboxamides” (priority 2009, published 2011).

SMILES strings stand for the structures.

Sequence of MDM2 (Q00987 whole entry, species assumed): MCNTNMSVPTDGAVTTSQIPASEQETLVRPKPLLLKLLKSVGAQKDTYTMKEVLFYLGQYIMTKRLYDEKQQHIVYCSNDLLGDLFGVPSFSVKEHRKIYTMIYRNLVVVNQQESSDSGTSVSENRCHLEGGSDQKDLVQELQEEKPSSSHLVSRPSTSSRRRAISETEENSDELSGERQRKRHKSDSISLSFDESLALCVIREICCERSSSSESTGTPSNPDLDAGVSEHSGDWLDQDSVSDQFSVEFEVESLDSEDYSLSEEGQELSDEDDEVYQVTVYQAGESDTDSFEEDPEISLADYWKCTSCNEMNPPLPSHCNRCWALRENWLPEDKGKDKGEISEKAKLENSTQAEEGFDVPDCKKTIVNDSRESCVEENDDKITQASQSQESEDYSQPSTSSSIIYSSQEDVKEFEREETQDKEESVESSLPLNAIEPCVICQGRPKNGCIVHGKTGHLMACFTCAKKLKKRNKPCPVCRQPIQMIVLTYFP

The target in the test is MDM2 (Homo sapiens, UniProt Q00987). Nature of the test: HTRF assay of inhibition of the p53-MDM2 interaction. It counts as binding. The following applies: GST-MDM2 / biotinylated p53 peptide, bsa 0.02%. The procedure:
The ability of the compounds to inhibit the interaction between p53 and MDM2 proteins was measured by an HTRF (homogeneous time-resolved fluorescence) assay in which recombinant GST-tagged MDM2 binds to a peptide that resembles the MDM2-interacting region of p53 (Lane et al.). Binding of GST-MDM2 protein and p53-peptide (biotinylated on its N-terminal end) is registered by the FRET (fluorescence resonance energy transfer) between Europium (Eu)-labeled anti-GST antibody and streptavidin-conjugated Allophycocyanin (APC).
[…] Add 10 uL diluted compounds (1:5 dilution in reaction buffer) to each well, mix by shaking. Add 20 uL biotinylated p53 peptide (180 nM working solution) in reaction buffer to each well and mix on shaker. Incubate at 37° C. for 1 h. Add 20 uL streptavidin-APC and Eu-anti-GST antibody mixture (6 nM Eu-anti-GST and 60 nM streptavidin-APC working solution) in TBS buffer with 0.2% BSA, shake at room temperature for 30 minutes and read using a TRF-capable plate reader at 665 and 615 nm (Victor 5, Perkin ElmerWallac). If not specified, the reagents were purchased from Sigma Chemical Co.
The compound `CC(C)(C)C[C@@H]1N[C@@H](C(=O)NCC[C@H](O)CO)[C@H](c2cccc(Cl)c2)[C@@]1(C#N)c1cc(Br)cs1` (mixture of isomers) [Example 7, rac-(2R,3R,4R,5S)-4-(4-bromo-thiophen-2-yl)-3-(3-chloro-phenyl)-4-cyano-5-(2,2-dimethyl-propyl)-pyrrolidine-2-carboxylic acid ((S)-3,4-dihydroxy-butyl)-amide] came in with an IC50 of 5860 nM.

The compound `CC(C)(C)C[C@@H]1N[C@@H](C(=O)NCC[C@H](O)CO)[C@H](c2cccc(Cl)c2F)[C@@]1(C#N)c1ncc(Cl)cc1F` (mixture of isomers) [Example 25, rac-(2R,3S,4S,5S)-3-(3-chloro-2-fluoro-phenyl)-4-(5-chloro-3-fluoro-pyridin-2-yl)-4-cyano-5-(2,2-dimethyl-propyl)-pyrrolidine-2-carboxylic acid ((S)-3,4-dihydroxy-butyl)-amide] registered an IC50 of 1230 nM. Compared with the last compound, the IC50 is about 4.8-fold lower.

In turn, `CC(C)(C)C[C@@H]1N[C@@H](C(=O)NCC[C@H](O)CO)[C@H](c2cccc(Cl)c2)[C@@]1(C#N)c1cccnc1` (mixture of isomers) [Example 39, rac-(2R,3R,4R,5S)-3-(3-chloro-phenyl)-4-cyano-5-(2,2-dimethyl-propyl)-4-pyridin-3-yl-pyrrolidine-2-carboxylic acid ((S)-3,4-dihydroxy-butyl)-amide] showed an IC50 of 1970 nM.

Compound `CC(C)(C)C[C@@H]1N[C@@H](C(=O)NCC[C@H](O)CO)[C@H](c2cccc(Cl)c2)[C@@]1(C#N)c1ccc(Cl)nc1` (mixture of isomers) [Example 44, rac-(2R,3R,4R,5S)-3-(3-chloro-phenyl)-4-(6-chloro-pyridin-3-yl)-4-cyano-5-(2,2-dimethyl-propyl)-pyrrolidine-2-carboxylic acid ((S)-3,4-dihydroxy-butyl)-amide] gave an IC50 of 61 nM.

`COC(=O)c1ccc(NC(=O)[C@@H]2N[C@@H](CC(C)(C)C)[C@](C#N)(c3ccc(Br)cn3)[C@H]2c2cccc(Cl)c2F)cc1` (racemic) [Example 34, rac-4-{[(2R,3S,4S,5S)-4-(5-bromo-pyridin-2-yl)-3-(3-chloro-2-fluoro-phenyl)-4-cyano-5-(2,2-dimethyl-propyl)-pyrrolidine-2-carbonyl]-amino}-benzoic acid methyl ester] returned an IC50 of 201 nM.
